In patent publication US8029980B2, “Identification and use of agents that modulate oncogenic transcription agent activity” (The Board of Trustees of the University of Illinois, priority 2006, dated 2011):

Columns and labels:
[1] = tested on: human breast cancer MDA-MB-231 cell line; conditions: earlier report (ref. 26); cited from earlier work
[2] = tested on: Breast cancer cell lines BT-474, MDA-MB-231, T-47D and ZR-75-1; test: FoxM1 and cleaved caspase-3 immunoblot in breast cancer cell lines; format: cell-based, human; conditions: 5 μM, 48 hrs
Procedure: FIG. 7. […] Breast cancer cell lines BT-474, MDA-MB-231, T-47D and ZR-75-1 were treated with 5 μM Siomycin and thiostrepton, respectively, for 48 hrs and the cell lysates were analyzed for the levels of FoxM1 and cleaved caspase-3 by immunoblotting.
(§1) Immunoblotting was performed as described (18-20) with antibodies specific for p21 (556431; BD Pharmingen), survivin (sc-10811; Santa Cruz), cleaved caspase-3 (9664; Cell Signaling), and β-actin (A5441; Sigma) antibodies. Immunoblot for FoxM1 was done using the previously generated rabbit antisera (2), and phospho-FoxM1 was detected using the MPM2 monoclonal antibody (Upstate Biotechnology) which recognizes the phosphorylated protein sequence phosphoserine/phosphothreonine-proline.

FoxM1 = molecular target: T1, FoxM1 (Homo sapiens, UniProt Q08050); test: FoxM1 immunoprecipitation and MPM2 immunoblot for phospho-FoxM1 in C3-Luc cells; format: cell-based; conditions: 100 μM, 8 hrs
T1 construct: endogenous in cells; host or cells: C3-Luc (U2OS)
T1 sequence (Q08050 1-763): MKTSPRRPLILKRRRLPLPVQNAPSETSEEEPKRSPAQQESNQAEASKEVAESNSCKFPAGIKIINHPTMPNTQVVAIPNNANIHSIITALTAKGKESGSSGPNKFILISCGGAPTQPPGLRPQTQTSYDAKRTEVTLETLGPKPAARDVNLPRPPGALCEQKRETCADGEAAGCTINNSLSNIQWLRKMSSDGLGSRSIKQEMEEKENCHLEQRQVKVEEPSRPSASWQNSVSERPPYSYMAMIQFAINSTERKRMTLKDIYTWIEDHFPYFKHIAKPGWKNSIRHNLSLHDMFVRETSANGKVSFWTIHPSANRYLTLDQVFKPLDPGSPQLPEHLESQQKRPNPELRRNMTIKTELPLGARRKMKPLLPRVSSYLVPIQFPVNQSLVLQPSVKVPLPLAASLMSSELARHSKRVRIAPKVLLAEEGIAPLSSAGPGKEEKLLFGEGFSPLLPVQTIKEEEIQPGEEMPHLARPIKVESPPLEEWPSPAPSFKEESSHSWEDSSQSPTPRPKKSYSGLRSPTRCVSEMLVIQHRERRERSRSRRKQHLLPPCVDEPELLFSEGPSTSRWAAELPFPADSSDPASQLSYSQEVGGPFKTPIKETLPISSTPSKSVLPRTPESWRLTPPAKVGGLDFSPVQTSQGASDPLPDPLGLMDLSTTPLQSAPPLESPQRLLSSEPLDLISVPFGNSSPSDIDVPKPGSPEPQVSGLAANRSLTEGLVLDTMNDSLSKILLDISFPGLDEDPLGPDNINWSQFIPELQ
Procedure: as §1
For the immunoprecipitation experiment, FoxM1 antisera (2) was used along with protein A-sepharose to pull down FoxM1 protein, which was resolved on an SDS-PAGE gel and transferred to PVDF membrane. The total and phospho-FoxM1 levels were determined by using the antibodies described above.
Based on this observation, we hypothesized that Siomycin A may inhibit FoxM1 transcriptional activity by blocking this phosphorylation event. In order to test this hypothesis, we treated C3-Luc cells with DMSO (control) or 100 μM of Siomycin A for 8 hrs and immunoprecipitated FoxM1 from the lysates. We then analyzed these samples for phospho-FoxM1 levels by immunoblotting with MPM2, a monoclonal antibody that recognizes phosphorylated Cdk1 and Cdk2 sites.

[3] = tested on: FoxM1 target genes Cdc25B, Survivin, and CENPB; test: Real-time quantitative RT-PCR of FoxM1 target gene mRNA in C3-Luc cells; format: cell-based, human; conditions: 24 hrs, vs DMSO
Procedure: FIG. 2. Siomycin A inhibits endogenous FoxM1 transcriptional activity. (A) C3-Luc cells without doxycycline induction, were treated with increasing dose of Siomycin A and luciferase activity was determined as described in Example 1. (B) C3-Luc cells treated either with DMSO (control) or Siomycin A were harvested 24 hrs later and the RNA was subjected to real-time RT-PCR for quantitation of mRNA levels of FoxM1 target genes Cdc25B, Survivin, and CENPB. (C) C3-Luc cells treated as indicated were harvested 24 hrs later and used for immunoblot analysis to determine the levels of survivin, and p21^WAF1. β-actin protein levels were used as loading control.
Cells treated with Siomycin A or DMSO (control) were harvested 24 hrs later and RNA was extracted using the TRIzol reagent (15596-026; Invitrogen). cDNA was prepared from this RNA using the Bio-Rad cDNA synthesis kit. The following sense (S) and antisense (AS) primer sequences and annealing temperatures (Ta) were used to amplify and measure the amount of human mRNA by real-time RT-PCR: FoxM1-S, 5′-GGAGGAAATGCCACACTTAGCG-3′ (SEQ ID NO: 1), and FoxM1-AS, 5′-TAGGACTTCTTGGGTCTTGGGGTG-3′ (SEQ ID NO: 2) (Ta, 55.7° C.); survivin-S, 5′-TCAAGGACCACCGCATCTCTA-3′ (SEQ ID NO: 3), and survivin-AS, 5′-TGAAGCAGAAGAAACACTGGGC-3′ (SEQ ID NO: 4) (Ta, 61° C.); CENPB-S, 5′-ATTCAGACAGTGAGGAAGAGGACG-3′ (SEQ ID NO: 5), and CENPB-AS, 5′-CATCAATGGGGAAGGAGGTCAG-3′ (SEQ ID NO: 6) (Ta, 58° C.); Cdc25B-S, 5′-CCCTTCCCTGTTTTCCTTTC-3′ (SEQ ID NO: 7), and Cdc25B-AS, 5′-ACACACACTCCTGCCATAGG-3′ (SEQ ID NO: 8) (Ta, 61.7° C.). These real-time RT-PCR RNA levels were normalized to human cyclophilin mRNA levels, and these primers are as follows: cyclophilin-S, 5′-GCAGACAAGGTCCCAAAGACAG-3′ (SEQ ID NO: 9), and cyclophilin-AS, 5′-CACCCTGACACATAAACCCTGG-3′ (SEQ ID NO: 10) (Ta, 55.7° C.).

## C=C(NC(=O)C(=C)NC(=O)c1csc(C2=N[C@@H]3c4csc(n4)[C@H]4NC(=O)c5csc(n5)[C@H]([C@](C)(O)[C@@H](C)O)NC(=O)[C@H]5CSC(=N5)/C(=C/C)NC(=O)[C@H]([C@@H](C)O)NC(=O)c5csc(n5)[C@]3(CC2)NC(=O)[C@H](C)NC(=O)C(=C)NC(=O)C(=C)NC(=O)[C@H](C(C)C)N[C@@H]2C=Cc3c([C@H](C)O)cc(nc3[C@H]2O)C(=O)O[C@@H]4C)n1)C(N)=O [Siomycin A]
[1]
  pro-apoptotic activity in screen: identified in a screen for pro-apoptotic compounds
[2]
  FoxM1 expression: inhibit FoxM1 expression
  apoptosis (cleaved caspase-3): induce apoptosis
FoxM1
  phospho-FoxM1 levels: decrease in phospho-FoxM1
  total FoxM1 levels: only marginally reduced
[3]
  CENPB mRNA level compared to initial level: 15%
  Cdc25B mRNA level relative to basal value: 32%
  Survivin mRNA level compared to initial level: 48%
